Values of other authors in PMC3147153 (Clinical cancer research : an official journal of the …, 2009).

Test system: CYP3A4
Conditions: in vitro; ref studies done by Ariad Pharmaceuticals; cited from earlier work

CO[C@H]1C[C@@H]2CC[C@@H](C)[C@@](O)(O2)C(=O)C(=O)N2CCCC[C@H]2C(=O)O[C@H]([C@H](C)C[C@@H]2CC[C@@H](O)[C@H](OC)C2)CC(=O)[C@H](C)/C=C(\C)[C@@H](O)[C@@H](OC)C(=O)[C@H](C)C[C@H](C)/C=C/C=C/C=C/1C [sirolimus, reference compound]
metabolism by CYP3A4: primarily metabolized by CYP3A4
